Values joined by “and” are separate entries in the source; they are usually repeats but may differ in a detail not shown here. Identical values can stand only once.
Assays:
[1] = Clarity and dissolution of the solid product in water; format: physicochemical
Description: A 500 mL round bottom reaction vessel was outfitted with an oil bath, stir bar, distillation head and condenser, receiving flask, oil bubbler, gas inlet that allows argon to pass through vessel and distillation setup, an immersion thermoprobe for the oil bath, and a thermoprobe for the head. The reactor is charged with 47.6 mL of a 42% methanolic solution of dimethyloctadecyl[3-(trimethoxysilyl)propyl]ammonium chloride (Aldrich), 200 mL DMF, 27.7 g (3 equiv.) of N-Tris(hydroxymethyl)methyl-2-aminoethanesulfonic acid (TES) and 8.7 mL of 25% MeONa in MeOH. The mixture is heated to 125 degrees C. (oil temp) and the methanol is collected by distillation. As the reaction is heated a homogenous solution is formed. As the methanol is distilled off a white precipitate begins to form. The reaction is heated until the head temp drops and no more MeOH is evolved (about 1.5 hours). The reaction is then cooled to room temperature and the precipitate (NaCl) is removed by filtration through a glass fiber filter and the DMF was concentrated to about 100 mL total volume at reduced pressure. The solution is cooled to rt. A 1 L flask under argon and a stir bar is charged with anhydrous acetonitrile (1000 mL) and cooled to ˜10 C. The DMF solution is added slowly to rapidly stirring acetonitrile to form a white suspension. Stirring is continued for 30 minutes. […]

[2] = Polymerization stability in aqueous media by LCMS/MS quantification of hydrolyzed trisiloxy species; format: physicochemical

SMILES	time a solution in water remains clear ([1]; 1% solution in water) [months]	dissolution of the powder in water ([1]; fine powder, water, gentle heating)	2022 Concentration of Compound 1 hydrolysis product, average ([2]; average of three measurements after storage under ambient conditions for multiple years)	2019 Concentration of Compound 1 hydrolysis product, average ([2]; average of three measurements, reference value immediately after preparation)	stability to polymerization in aqueous media ([2]; over prolonged periods of time)	2022 Concentration of Compound 1 hydrolysis product ([2]; single measurements after storage under ambient conditions for multiple years, expected 60 μg/mL, expressed as Compound 1 equivalent)	2019 Concentration of Compound 1 hydrolysis product ([2]; single measurements immediately after preparation, Compound 1 diluted in water to expected 60 μg/mL, expressed as Compound 1 equivalent)
CCCCCCCCCCCCCCCCCC[N+](C)(C)CCC[Si](OCC(CO)(CO)NCCS(=O)(=O)[O-])(OCC(CO)(CO)NCCS(=O)(=O)O)OCC(CO)(CO)NCCS(=O)(=O)O [Example 1, 2-[[1-[[3-[dimethyl(octadecyl)ammonio]propyl-[3-hydroxy-2-(hydroxymethyl)-2-(2-sulfoethylamino)propoxy]-[3-hydroxy-2-(hydroxymethyl)-2-(2-sulfoethylamino)propoxy]silyl]oxymethyl]-2-hydroxy-1-(hydroxymethyl)ethyl]amino]-ethanesulfonate]	> 5	dissolves quickly in water with gentle heating					
CCCCCCCCCCCCCCCCCC[N+](C)(C)CCC[Si](O)(O)O [Compound 1 hydrolysis product]			Average: 58.3 μg/mL	Average: 62.6 μg/mL	excellent stability to polymerization	59.2 µg/mL and 54.8 µg/mL and 60.9 µg/mL	69.1 µg/mL and 54.3 µg/mL and 64.4 µg/mL

Reference: patent publication US20260091049A1, “HALIDE-FREE AMMONIUM SILANES” (TOPIKOS SCIENTIFIC, INC., priority 2022, published 2026)
